Assay results from patent US20230404985A1, “METHODS OF TREATING TUMORS AND CANCERS HAVING DYSREGULATED WNT SIGNALING PATHWAYS” (ICAHN SCHOOL OF MEDICINE AT MOUNT SINAI, priority 2020, published 2023).

Experiments:
[1] = tested on: H3K27me3 at promoters of Wnt and pluripotency genes; assay: ChIP-sequencing of H3K27me3 in MYC-CTNNB1 organoids; type: cell-based, mouse; conditions: WNTinib 1 μM, 24 hours
Source text: Importantly, this was not seen in the MYC-Tp53 model organoids (FIG. 10C).

EZH2 = assay: Cellular fractionation, EZH2 localization in MYC-CTNNB1 tumor organoids; type: cell-based, mouse; conditions: WNTinib 1 μM, sorafenib 10 μM, 24 hours
Protocol: Cells were spun down again at 500 g, 4° C., for 5 minutes in ultra-low attachment 1.5 mL Eppendorf tubes. Cells were resuspended in 100 μL of lysis buffer 1 (50 mM HEPES-KOH, pH 7.5, 140 mM NaCl, 1 mM EDTA, 10% glycerol, 0.5% NP-40, 0.25% Triton X-100, lx protease/phosphatase inhibitors) and agitated at 4° C. for 10 minutes. Lysate was spun at 1,350 g, 4° C., for 5 minutes. The supernatant was saved for the cytoplasmic fraction. The pellet was resuspended in 100 μL of lysis buffer 2 (10 mM Tris-HCl, pH 8.0, 200 mM NaCl, 1 mM EDTA, 0.5 mM EGTA, lx protease/phosphatase inhibitors) and agitated at room temperature for 10 minutes. The supernatant was saved for the nuclear fraction. The pellet was resuspended in 35 μL of lysis buffer 3 (10 mM Tris-HCl, pH 8.0, 100 mM NaCl, 1 mM EDTA, 0.5 mM EGTA, 0.1% Na-Deoxycholate, 0.5% N-lauroylsarcosine, lx protease/phosphatase inhibitors) and agitated at 4° C. for 10 minutes. 1/10 volume of 10% Triton X-100 was added to the lysate, which was spun down at 20,000 g, 4° C., for 10 minutes. Supernatant was taken for chromatin fraction. […] SDS-PAGE was performed using standard procedures.
Next, EZH2 localization in WNTinib sensitive MYC-CTNNB1 and insensitive MYC-Tp53 tumor organoids was investigated. EZH2 localized diffusively in the MYC-CTNNB1 model but was primarily nuclear insoluble in the MYC-Tp53 model (FIG. 6E; lanes 7-9, left and right panels).

[2] = tested on: MYC-CTNNB1 tumor organoids; assay: Combination treatment matrices in MYC-CTNNB1 tumor organoids; type: cell-based, mouse; conditions: for effect of EZH2 degradation or inhibition (MS1943, GSK343) on activity: 3 days MS1943 or GSK343, then 3 days co-treatment; for Combination Index CI with p38i SB202190: titration of SB202190; for Combination Index CI with p38i SB202190 / Combination Index CI with KIT ligand SCF / Combination Index CI with BRAFi dabrafenib: 3 days; for Combination Index CI with KIT ligand SCF: titration of SCF; for Combination Index CI with BRAFi dabrafenib: titration of dabrafenib
Source text: FIG. 6A-6C are Volcano plots depicting phosphoproteomic (FIG. 6A), transcriptomic (FIG. 6B), and orepigenomic H3K27me3 (FIG. 6C) changes elicited by WNTinib inMYC-CTNNB1 tumor organoids (left) or MYC-Tp53 tumor organoids (right) as compared to DMSO. […] Values obtained from two biological replicates. […] Western blots measure endogenous proteins as indicated. […] Tubulin and histone H3 used as fractionation controls. […] Inset: western blot depicting depletion efficiency. Values obtained from three biological replicates [mean, SEM]. […] Tumor organoids were first treated with MS1943 or GSK343 for 3 days, followed by co-treatment with sorafenib or WNTinib for an additional 3 days. […] Combination index (CI) values were calculated for each column and averaged across each matrix.
Tumor organoids were treated for 3 days. […] Combination index (CI) values were calculated for each column and averaged across each matrix. […] FIGS. 7G-7H show combination treatment matrices for MYC-CTNNB1 tumor organoids treated with sorafenib (right) or WNTinib (left) and the BRAF inhibitor dabrafenib (FIG. 7G), or the p38 inhibitor SB202190 (FIG. 7H). Tumor organoids were treated for 3 days. […] Combination index (CI) values were calculated for each column and averaged across each matrix. […] Values obtained from three technical replicates [mean, SEM].
For assays in organoid lines, 96 well plates were first coated with a 50:50 solution of basal media:Matrigel (35 μL/well), which polymerized for 15 minutes at 37° C. Tumor organoids were taken out of Matrigel, broken, and washed. Tumor organoids were seeded at 1,000 cells per well and were treated the following day with serial dilutions (in the case of IC50 curves) or single doses (in the case of the initial screen) of drugs in technical triplicate. Final DMSO concentrations were kept below 0.5%. For adherent lines, cells were seeded at 5,000 cells per well in uncoated 96 well plates. […] Viability was measured three days post drug administration with either luminescence from CellTiter-Glo or absorbance at 560 and 590 nm from resazurin. Viability data was analyzed by normalizing individual drug-treated well values to DMSO-treated wells.

[3] = tested on: receptor tyrosine kinases including KIT and VEGFR1/2; assay: NanoBRET live cell target engagement, receptor tyrosine kinases; type: cell-based; conditions: relative to sorafenib and regorafenib
[4] = Dose escalation studies in mice; type: in vivo, mouse
Protocol: Mice were randomized into treatment groups, and daily oral dosing began one week after mice arrived at ISMMS. Body weight was recorded daily, and animals were monitored for any signs of sickness throughout the treatment period.
To rationalize a treatment regimen for WNTinib and understand potential toxicity, in vivo dose escalation was performed in three mouse strains (FIG. 8A, FIGS. 12A-12B). Mice were dosed daily for two weeks, and body weight loss was used as a proxy for systemic toxicity.

[5] = tested on: wild type (WT) healthy intestinal organoids; assay: TiterGlo viability of wild type intestinal organoids; type: cell-based, mouse; conditions: 72 hours post treatment
Protocol: (§1) FIGS. 13A-13E show results pertaining to colorectal cancer. […] Data are column/gene normalized on a 0-100 scale with 0 being the lowest expression level and 100 the highest. FIG. 13D show full dose-response analysis of WNTinib's effects on the indicated organoid and tumoroid lines; viability was quantified using the TiterGlo assay after 72 hours. WT intestinal organoids are used as a control. […] Images of the intestine are shown as an example.
First, an APC deletion (A) was introduced, then a KRAS^G12D overexpression (AK) in combination with a SMAD4^KO was introduced to affect the TGFbeta pathway (AKS). Last, P53 was deleted to mimic the latest stages of metastatic disease progression (AKSP).

AKSP tumoroids = assay: Full dose-response in CRC tumoroids (AKSP); type: cell-based, mouse; conditions: TiterGlo after 72 hours
Protocol: as §1
Next, a full dose-response of WNTinib in WildType normal organoids (WT), APC^KO (A), APC^KO KRAS^G12D/SMAD4^KO (AKS) and APC^KO KRAS^G12D/SMAD4^KO P53^KO (AKSP) tumoroids was performed. WNTinib has a lower IC50 in the aggressive metastatic AKSP tumoroids compared to their matched parental WT organoid line, providing thus a therapeutic window for the most advanced CRC models (FIG. 13D).

[6] = 14-day oral gavage tissue toxicity study; type: in vivo
Advanced-stage HCC = conditions: patients; cited from earlier work
[7] = dosed daily via oral gavage for two weeks, three mouse strains

SMILES	H3K27me3 at promoters of genes of Wnt and pluripotency pathways [1]	nuclear partitioning of EZH2 (EZH2)	pT367 EZH2 in the cytoplasm (EZH2)	effect of EZH2 degradation or inhibition (MS1943, GSK343) on activity [2]	Combination Index CI with p38i SB202190 [2]	Combination Index CI with KIT ligand SCF [2]	Combination Index CI with BRAFi dabrafenib [2]	live cell target engagement IC50 on receptor tyrosine kinases [3]	tolerability of exposures ([4]; dose escalation and 20 mg/kg PK (FIG. 8A, 8B))	body weight loss [4, 7]	signs of sickness [4, 7]	viability of WT organoids [5]	IC50 in AKSP tumoroids compared to parental WT organoid line (AKSP tumoroids)	pathological changes in brain, heart, esophagus, large intestine ([6]; 60 mg/kg and 120 mg/kg oral gavage, 14 days)	toxicity in mouse intestine ([6]; 14 days daily treatment, up to 4-fold the therapeutic dose)	median survival (Advanced-stage HCC)
CNC(=O)c1cc(Oc2ccc(NC(=O)Nc3ccc(C(F)(F)C(F)(F)F)cc3)c(F)c2)ccn1 [WNTinib, 4-(3-fluoro-4-(3-(4-(perfluoroethyl)phenyl)ureido)phenoxy)-N-methylpicolinamide]	upregulated the tri-methylation of lysine 27 on histone H3 (H3K27me3)	increase in nuclear partitioning of EZH2	ablated	antagonized the activity of WNTinib	> 1	> 1	> 1	retained a similar in vivo IC50	well-tolerated	weight loss did occur in a dose-dependent manner	No mice showed signs of sickness	without affecting that of WT organoids	lower IC50	do not reveal pathological changes	no toxicity was observed in mouse intestine	–
CNC(=O)c1cc(Oc2ccc(NC(=O)Nc3ccc(Cl)c(C(F)(F)F)c3)cc2)ccn1 [sorafenib, reference compound]	–	did not impact phosphorylation or nuclear to cytoplasmic ratios of EZH2	did not impact phosphorylation	did not alter the dose response to sorafenib	this was not the case for sorafenib	only WNTinib and not sorafenib activity was antagonized	this was not the case for sorafenib	–	–	–	–	–	–	–	–	11-14 months
